According to PMC6976901 (Toxicology Reports, 2020):
Read-outs that look alike come from different tables or passages of the source. Marks after values point to notes of the source that are not given here.

How the values were obtained:
liver (hepatotoxicity) = conditions: cited from earlier work
in vitro = conditions: human, Caco-2
[1] = fraction absorbed, oral; cited from earlier work
[2] = system: human intestinal epithelial Caco-2 cell monolayer; conditions: apical pH 6.0 to basal pH 7.4, mean ± SD of triplicate; for observed Papp: Table 2 secondary set; for Papp: Table 1 primary set
[3] = Table 1, Hazard Evaluation Support System Integrated Platform
[4] = Table 2, Hazard Evaluation Support System Integrated Platform

Compound	Papp (in vitro) [×10⁻⁶ cm/s]	further results
Cc1cccc(N)c1C [2,3-dimethylaniline]	62.4 ± 3	hepatic NOEL (liver (hepatotoxicity); [3]): 12 mg/kg/day
Cc1ccc(N)c(C)c1 [2,4-dimethylaniline]	66.1 ± 2	hepatic NOEL (liver (hepatotoxicity); [3]): 2 mg/kg/day
Nc1ccccc1-c1ccccc1 [2-aminobiphenyl]	57.6 ± 1.1	hepatic NOEL (liver (hepatotoxicity); [3]): 100 mg/kg/day
Nc1ccccc1Cl [2-chloroaniline]	89.3 ± 2.6	
Oc1ccccc1Cl [2-chlorophenol]	75.2 ± 8.3	hepatic NOEL (liver (hepatotoxicity); [4]): 200 mg/kg/day
Oc1nc2ccccc2[nH]1 [2-hydroxybenzimidazole]	50.7 ± 1.6	
Oc1ccccc1-c1ccccc1 [2-hydroxybiphenyl]	33.4 ± 2.9	
Sc1nc2ccccc2[nH]1 [2-mercaptobenzimidazole]	67.3 ± 1.8	hepatic NOEL (liver (hepatotoxicity); [3]): 2 mg/kg/day
Sc1ncc[nH]1 [2-mercaptoimidazole]	9.1 ± 0.3	
COc1cc([N+](=O)[O-])ccc1N [2-methoxy-4-nitroaniline]	55.2 ± 7	hepatic NOEL (liver (hepatotoxicity); [4]): 100 mg/kg/day
Cc1ccc(N)cc1C [3,4-dimethylaniline]	54.1 ± 5.8	hepatic NOEL (liver (hepatotoxicity); [3]): 50 mg/kg/day
Cc1cc(C)cc(N)c1 [3,5-dimethylaniline]	67.4 ± 11.3	hepatic NOEL (liver (hepatotoxicity); [3]): 10 mg/kg/day
Nc1cccc(S(=O)(=O)O)c1 [3-aminobenzenesulfonic acid]	2.1 ± 0.3	
Nc1cccc(O)c1 [3-aminophenol]	51.3 ± 2.3	
N#Cc1cccnc1 [3-cyanopyridine]	56.9 ± 7	hepatic NOEL (liver (hepatotoxicity); [3]): 5 mg/kg/day
CCc1cccc(O)c1 [3-ethylphenol]	51.5 ± 5	hepatic NOEL (liver (hepatotoxicity); [4]): 300 mg/kg/day
Oc1cccc(-c2ccccc2)c1 [3-hydroxybiphenyl]	28.4 ± 2.2	
Nc1cccc([N+](=O)[O-])c1 [3-nitroaniline]	52 ± 5	hepatic NOEL (liver (hepatotoxicity); [3]): 15 mg/kg/day
Cc1cc(Cl)ccc1O [4-chloro-o-cresol]	75.4 ± 3.9	hepatic NOEL (liver (hepatotoxicity); [4]): 250 mg/kg/day
Oc1ccc(Cl)cc1 [4-chlorophenol]	43.1 ± 3.7	
CCc1ccc(O)cc1 [4-ethylphenol]	43.7 ± 2.3	hepatic NOEL (liver (hepatotoxicity); [4]): 100 mg/kg/day

Compound	Papp (in vitro) [×10⁻⁶ cm/s]	further results
Oc1ccc(-c2ccccc2)cc1 [4-hydroxybiphenyl]	44.1 ± 2.8	
CCC(C)c1ccc(O)cc1 (stereo not shown) [4-sec-butylphenol]	40.2 ± 1.9	
CC(C)(c1ccccc1)c1ccc(O)cc1 [4-α-cumylphenol]	19.5 ± 3.4	hepatic NOEL (liver (hepatotoxicity); [4]): 100 mg/kg/day
Cc1cc(N)c(S(=O)(=O)O)cc1Cl [5-amino-2-chlorotoluene-4-sulfonic acid]	2 ± 0.2	hepatic NOEL (liver (hepatotoxicity); [3]): 1000 mg/kg/day
CCOc1ccc2ccc(=O)oc2c1 [7-ethoxycoumarin]	75 ± 4.8	
O=c1ccc2ccc(O)cc2o1 [7-hydroxycoumarin]	103 ± 17	
CN(C)c1ccccc1 [N,N-dimethylaniline]	99.9 ± 12.9	
CCNc1ccccc1 [N-ethylaniline]	66 ± 1	hepatic NOEL (liver (hepatotoxicity); [3]): 5 mg/kg/day
CNc1ccccc1 [N-methylaniline]	46.3 ± 5	hepatic NOEL (liver (hepatotoxicity); [3]): 5 mg/kg/day
CC(=O)Nc1ccc(O)cc1 [acetaminophen, reference compound]	31.9 ± 1.4	hepatic NOEL (liver (hepatotoxicity); Table 2): 250 [11] mg/kg/day; reported human Fa [1]: 100 [23] %
Nc1ccccc1 [aniline]	54.4 ± 2.6	
CC(C)NCC(O)COc1ccc(CC(N)=O)cc1 (stereo not shown) [atenolol]		reported human Fa [1]: 50 [7] %
CNCC[C@@H](Oc1ccccc1C)c1ccccc1 [atomoxetine, reference compound]	2.7 ± 0.1	reported human Fa [1]: 100 [8] %
COP(=O)(OC)SCn1c(=O)oc2cc(Cl)cnc21 [azamethiphos]	40.2 ± 1.8	
c1ccc2[nH]cnc2c1 [benzimidazole]	73 ± 0.6	
O=C(O)c1ccccc1 [benzoic acid]	149 ± 16	
CN(C)CCCOc1nn(Cc2ccccc2)c2ccccc12 [benzydamine, reference compound]	1.6 ± 0.1	
CC(C)(c1ccc(O)cc1)c1ccc(O)cc1 [bisphenol A]	32.1 ± 1.3	hepatic NOEL (liver (hepatotoxicity); [3]): 200 mg/kg/day
Oc1ccc(Cc2ccc(O)cc2)cc1 [bisphenol F]		hepatic NOEL (liver (hepatotoxicity); [4]): 100 mg/kg/day; observed Papp [2]: 41.5 ± 2.1 ×10⁻⁶ cm/s
CN/C(=N/CCSCc1nc[nH]c1C)NC#N [cimetidine, reference compound]	1.7 ± 0.2	reported human Fa [1]: 68 [7] %
CN1C(=O)CC[C@H]1c1cccnc1 [cotinine]	41.2 ± 2.9	reported human Fa [1]: 90 [8] %

Compound	Papp (in vitro) [×10⁻⁶ cm/s]	further results
[H]/N=C(/N)c1ccc(NCc2nc3cc(C(=O)N(CCC(=O)O)c4ccccn4)ccc3n2C)cc1 [dabigatran, reference compound]	3.8 ± 1.7	
C[C@@H]1C[C@H]2[C@@H]3CCC4=CC(=O)C=C[C@]4(C)[C@@]3(F)[C@@H](O)C[C@]2(C)[C@@]1(O)C(=O)CO [dexamethasone, reference compound]	9.5 ± 1.4	reported human Fa [1]: 90 [8] %
O=C(O)Cc1ccccc1Nc1c(Cl)cccc1Cl [diclofenac, reference compound]	75.6 ± 0.6	reported human Fa [1]: 82 [25] %
COc1ccc2c3c1O[C@H]1[C@@H](O)CC[C@H]4[C@@H](C2)N(C)CC[C@@]341 [dihydrocodeine, reference compound]	2.4 ± 0.1	
c1ccc(Nc2ccccc2)cc1 [diphenylamine]	15.1 ± 1.1	
CC(C)N(CCC(C(N)=O)(c1ccccc1)c1ccccn1)C(C)C (stereo not shown) [disopyramide, reference compound]	1.4 ± 0.3	reported human Fa [1]: 83 [7] %
O=C(O)CNC(=O)c1ccccc1 [hippuric acid]	0.6 ± 0.1	
N#Cc1cccc(C#N)c1 [isophthalonitrile]		hepatic NOEL (liver (hepatotoxicity); [3]): 8 mg/kg/day; Papp [2]: 805 ± 8 ^a nm/s
COc1ccc(C(=O)NCc2ccc(OCCN(C)C)cc2)cc1OC [itopride, reference compound]	1.2 ± 0.3	
Nc1cccc2c1CN(C1CCC(=O)NC1=O)C2=O (stereo not shown) [lenalidomide, reference compound]	0.7 ± 0.1	reported human Fa [1]: 90 [26] %
CC[C@H](C)C(=O)O[C@H]1C[C@@H](C)C=C2C=C[C@H](C)[C@H](CC[C@@H]3C[C@@H](O)CC(=O)O3)[C@H]21 [lovastatin, reference compound]	2.1 ± 0.1	reported human Fa [1]: 31 [7] %
Cc1cccc(O)c1 [m-cresol]	85.1 ± 3.5	hepatic NOEL (liver (hepatotoxicity); [3]): 100 mg/kg/day
Cc1cccc(Nc2ccccc2C(=O)O)c1C [mefenamic acid, reference compound]	180 ± 8.3	
CN(Cc1cnc2nc(N)nc(N)c2n1)c1ccc(C(=O)N[C@@H](CCC(=O)O)C(=O)O)cc1 [methotrexate, reference compound]	1.1 ± 0.2	reported human Fa [1]: 20 [24] %
COCCc1ccc(OCC(O)CNC(C)C)cc1 (stereo not shown) [metoprolol, reference compound]	3.4 ± 0.1	
Cc1ncc2n1-c1ccc(Cl)cc1C(c1ccccc1F)=NC2 [midazolam, reference compound]	31.8 ± 1.9	reported human Fa [1]: 60 [28] %
CN1CCN2c3ncccc3Cc3ccccc3C2C1 (stereo not shown) [mirtazapine, reference compound]	4.6 ± 0.3	
CCCCC(CC)COC(=O)c1ccccc1C(=O)O (stereo not shown) [mono(2-ethylhexyl) phthalate]		Papp [2]: 467 ± 18 nm/s
CCCCOC(=O)c1ccccc1C(=O)O [monobutyl phthalate]	31.8 ± 0.8	
CN1CCC[C@H]1c1cccnc1 [nicotine, reference compound]	5.7 ± 0.6	reported human Fa [1]: 100 [8] %
Cc1ccccc1O [o-cresol]	90.5 ± 6.4	

Compound	Papp (in vitro) [×10⁻⁶ cm/s]	further results
Cc1cc2c(s1)Nc1ccccc1N=C2N1CCN(C)CC1 [olanzapine, reference compound]	3.5 ± 0.3	
COc1ccc2[nH]c([S+]([O-])Cc3ncc(C)c(OC)c3C)nc2c1 (stereo not shown) [omeprazole, reference compound]		reported human Fa [1]: 95 [7] %
Nc1ccc(C(=O)O)cc1 [p-aminobenzoic acid]	58.7 ± 4	
Cc1ccc(O)cc1 [p-cresol]	50.7 ± 4.5	
O=C(O)c1ccc(O)cc1 [p-hydroxybenzoic acid]	60.9 ± 3	
CCOc1ccc(N)cc1 [p-phenetidine]		hepatic NOEL (liver (hepatotoxicity); [4]): 160 mg/kg/day; observed Papp [2]: 58.2 ± 3.1 ×10⁻⁶ cm/s
O=C1NC(=O)c2ccccc21 [phthalimide]	93.3 ± 6.9	
Nc1cccc2c1C(=O)N(C1CCC(=O)NC1=O)C2=O (stereo not shown) [pomalidomide, reference compound]	46.6 ± 5.7	reported human Fa [1]: 73 [29] %
CC[C@H](C)C(=O)O[C@H]1C[C@H](O)C=C2C=C[C@H](C)[C@H](CC[C@@H](O)C[C@@H](O)CC(=O)O)[C@H]21 [pravastatin, reference compound]	0.9 ± 0.1	reported human Fa [1]: 13 [31] %
CC(=O)[C@H]1CC[C@H]2[C@@H]3CCC4=CC(=O)CC[C@]4(C)[C@H]3CC[C@]12C [progesterone, reference compound]	11.3 ± 2	
CC(C)NCC(O)COc1cccc2ccccc12 (stereo not shown) [propranolol, reference compound]	2.9 ± 0.3	
OCCOCCN1CCN(C2=Nc3ccccc3Sc3ccccc32)CC1 [quetiapine, reference compound]	3.8 ± 0.4	reported human Fa [1]: 73 [30] %
N#Cc1ccc(C#N)cc1 [terephthalonitrile]	57.3 ± 1.3	hepatic NOEL (liver (hepatotoxicity); [3]): 20 mg/kg/day
O=C1CCC(N2C(=O)c3ccccc3C2=O)C(=O)N1 (stereo not shown) [thalidomide, reference compound]	23.5 ± 1.9	
CCCCNC(=O)NS(=O)(=O)c1ccc(C)cc1 [tolbutamide, reference compound]	122 ± 11	
CN(C)C [trimethylamine]		Papp [2]: 33 ± 1 nm/s
CC(=O)CC(c1ccccc1)c1c(O)c2ccccc2oc1=O (stereo not shown) [warfarin, reference compound]	121 ± 5	
lucifer yellow [reference compound]		Papp [2]: 7 ± 1 nm/s; reported human Fa [1]: 0 [27] %
